Test results taken from ChEMBL document CHEMBL4196036, “Benzomorphan scaffold for opioid analgesics and pharmacological tools development: A comprehensive review” (Eur J Med Chem, 2018).

How the values were obtained:
[1] = molecular target: T1, Kappa-type opioid receptor (Homo sapiens, UniProt P41145); experiment: Binding affinity to KOR (unknown origin)
Homo sapiens [2] = species: Homo sapiens; experiment: Selectivity ratio of Ki for MOR (unknown origin) to Ki for KOR (unknown origin)
Homo sapiens [3] = species: Homo sapiens; experiment: Selectivity ratio of Ki for DOR (unknown origin) to Ki for KOR (unknown origin)
Mus musculus [4] = experiment: Antinociceptive activity in sc dosed mouse by abdominal constriction assay; type: functional
Mu-type opioid receptor [5] = molecular target: T2, Mu-type opioid receptor (Homo sapiens, UniProt P35372); experiment: Binding affinity to MOR (unknown origin)
T2 sequence (P35372 whole entry): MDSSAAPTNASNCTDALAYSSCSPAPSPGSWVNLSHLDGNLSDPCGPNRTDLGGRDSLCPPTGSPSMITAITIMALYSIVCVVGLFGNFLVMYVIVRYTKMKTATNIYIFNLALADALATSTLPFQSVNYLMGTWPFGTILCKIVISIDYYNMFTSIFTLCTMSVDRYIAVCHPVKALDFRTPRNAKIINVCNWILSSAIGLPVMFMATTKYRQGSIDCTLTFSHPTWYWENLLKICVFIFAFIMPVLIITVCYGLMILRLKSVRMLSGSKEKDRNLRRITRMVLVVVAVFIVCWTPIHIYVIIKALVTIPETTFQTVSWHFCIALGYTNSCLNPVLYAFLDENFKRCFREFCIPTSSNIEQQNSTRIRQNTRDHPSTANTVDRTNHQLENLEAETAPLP

[6] = molecular target: T3, Delta-type opioid receptor (Homo sapiens, UniProt P41143); experiment: Binding affinity to DOR (unknown origin)
T3 sequence (P41143 whole entry): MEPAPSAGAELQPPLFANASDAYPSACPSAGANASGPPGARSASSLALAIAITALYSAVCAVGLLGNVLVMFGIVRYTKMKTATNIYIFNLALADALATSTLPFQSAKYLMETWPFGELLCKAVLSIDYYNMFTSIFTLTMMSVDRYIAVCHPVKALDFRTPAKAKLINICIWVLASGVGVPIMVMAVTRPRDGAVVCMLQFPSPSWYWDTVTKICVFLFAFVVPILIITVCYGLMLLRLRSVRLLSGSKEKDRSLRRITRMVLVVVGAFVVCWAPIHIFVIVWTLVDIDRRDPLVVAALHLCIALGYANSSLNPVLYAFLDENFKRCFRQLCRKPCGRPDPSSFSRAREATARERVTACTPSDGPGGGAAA

Mu-type opioid receptor [7] = molecular target: T4, Mu-type opioid receptor (Cavia porcellus, UniProt P97266); experiment: Displacement of [3H]DAMGO from MOR in guinea pig brain membranes after 60 mins by scintillation counting method; type: cell membranes, Membrane
T4 sequence (P97266 whole entry): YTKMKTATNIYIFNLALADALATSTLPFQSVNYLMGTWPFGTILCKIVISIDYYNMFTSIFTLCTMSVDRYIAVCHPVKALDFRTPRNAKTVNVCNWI

[8] = molecular target: T5, G_PROTEIN_RECEP_F1_2 domain-containing protein (Cavia porcellus, UniProt A0A286XTF2); experiment: Displacement of [3H]Naltrindole from DOR in guinea pig brain membranes after 3 hrs by scintillation counting method; type: cell membranes, Membrane
T5 sequence (A0A286XTF2 whole entry): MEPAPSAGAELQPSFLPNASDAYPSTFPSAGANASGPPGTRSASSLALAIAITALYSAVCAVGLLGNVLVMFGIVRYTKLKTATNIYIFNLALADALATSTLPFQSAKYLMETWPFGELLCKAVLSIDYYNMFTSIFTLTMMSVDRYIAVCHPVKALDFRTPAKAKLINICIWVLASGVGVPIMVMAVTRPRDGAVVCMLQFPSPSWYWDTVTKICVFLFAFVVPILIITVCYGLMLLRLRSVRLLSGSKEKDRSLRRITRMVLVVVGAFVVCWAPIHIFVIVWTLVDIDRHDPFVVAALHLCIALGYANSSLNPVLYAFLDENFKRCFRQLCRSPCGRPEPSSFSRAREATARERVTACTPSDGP

[9] = molecular target: T6, Kappa-type opioid receptor (Cavia porcellus, UniProt P41144); experiment: Displacement of [3H]U69,593 from KOR in guinea pig brain membranes after 60 mins by scintillation counting method; type: cell membranes, Membrane
T6 sequence (P41144 whole entry): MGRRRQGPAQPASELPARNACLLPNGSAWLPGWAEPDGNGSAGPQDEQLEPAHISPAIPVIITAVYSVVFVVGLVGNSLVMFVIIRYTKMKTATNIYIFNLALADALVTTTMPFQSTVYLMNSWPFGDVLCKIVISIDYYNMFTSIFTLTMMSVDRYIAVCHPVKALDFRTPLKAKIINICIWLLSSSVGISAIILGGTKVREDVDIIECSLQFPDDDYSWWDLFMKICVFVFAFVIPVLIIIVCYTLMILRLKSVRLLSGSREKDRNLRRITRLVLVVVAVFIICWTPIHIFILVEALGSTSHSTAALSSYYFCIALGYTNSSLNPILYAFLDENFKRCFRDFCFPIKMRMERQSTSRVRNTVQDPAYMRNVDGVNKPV

[10] = molecular target: Kappa-type opioid receptor (Macaca mulatta, UniProt H9FL65); experiment: Displacement of [3H]U69,593 from KOR in monkey brain cortex membranes; type: cell membranes
Chain of Kappa-type opioid receptor (Macaca mulatta, UniProt H9FL65) (H9FL65 whole entry): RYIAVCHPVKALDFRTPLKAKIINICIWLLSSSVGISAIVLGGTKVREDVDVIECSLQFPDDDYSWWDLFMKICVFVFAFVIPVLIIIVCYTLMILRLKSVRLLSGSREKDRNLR

Mu-type opioid receptor [11] = molecular target: Mu-type opioid receptor (Macaca mulatta, UniProt Q9MYW9); experiment: Displacement of [3H]DAMGO from MOR in monkey brain cortex membranes; type: cell membranes
Chain of Mu-type opioid receptor (Macaca mulatta, UniProt Q9MYW9) (Q9MYW9 whole entry): as the sequence (P35372 whole entry) above, with A6V, Y19H, P26R, A119V, F154S, T227S, V293I, N344D counted along it

[12] = molecular target: G_PROTEIN_RECEP_F1_2 domain-containing protein (Macaca mulatta, UniProt F7HEV7); experiment: Displacement of [3H]naltrindole from DOR in monkey brain cortex membranes; type: cell membranes
Chain of G_PROTEIN_RECEP_F1_2 domain-containing protein (Macaca mulatta, UniProt F7HEV7) (F7HEV7 whole entry): as the sequence (P41143 whole entry) above, with E10A, C27F, S29N, E112K, V179I counted along it

Mus musculus [13] = experiment: Antinociceptive activity in sc dosed ICR mouse after 20 mins by tail flick test; type: functional
Mus musculus [14] = experiment: Analgesic activity in sc dosed ICR mouse after 30 mins by hot plate test; type: functional; conditions: 0.5 h
Mus musculus [15] = species: Mus musculus; experiment: Antinociceptive activity in mouse by paraphenylquinone assay; type: functional
Mu-type opioid receptor [16] = molecular target: T4, Mu-type opioid receptor; experiment: Displacement of [3H]DAMGO from MOR in guinea pig brain membranes; type: cell membranes, Membrane
Mu-type opioid receptor [17] = molecular target: T2, Mu-type opioid receptor; experiment: Displacement of [3H]-diprenorphine from MOR (unknown origin) after 1 to 2 hrs by scintillation counting method
[18] = molecular target: T1, Kappa-type opioid receptor; experiment: Displacement of [3H]U69,593 from human KOR expressed in HEK293 cell membranes after 1 hr by scintillation counting method
[19] = molecular target: T1, Kappa-type opioid receptor; experiment: Agonist activity at human KOR expressed in HEK293 cell membranes assessed as stimulation of [35S]GTPgammaS binding after 30 mins by scintillation counting method relative to control; type: functional
[20] = molecular target: T1, Kappa-type opioid receptor; experiment: Agonist activity at human KOR expressed in HEK293 cell membranes assessed as stimulation of [35S]GTPgammaS binding after 30 mins by scintillation counting method; type: functional
Mu-type opioid receptor [21] = molecular target: T2, Mu-type opioid receptor; experiment: Displacement of [3H]DAMGO from MOR (unknown origin) expressed in CHO cell membranes
[22] = molecular target: T3, Delta-type opioid receptor; experiment: Displacement of [3H]naltrindole from DOR (unknown origin) expressed in CHO cell membranes
[23] = molecular target: T1, Kappa-type opioid receptor; experiment: Displacement of [3H]U69,593 from KOR (unknown origin) expressed in CHO cell membranes
[24] = molecular target: T5, G_PROTEIN_RECEP_F1_2 domain-containing protein; experiment: Displacement of [3H]Naltrindole from DOR in guinea pig brain membranes; type: cell membranes, Membrane
[25] = molecular target: T6, Kappa-type opioid receptor; experiment: Displacement of [3H]U69,593 from KOR in guinea pig brain membranes; type: cell membranes, Membrane
Mus musculus [26] = experiment: Antinociceptive activity in sc dosed mouse assessed as inhibition of PPQ-induced stretching response pretreated for 10 mins followed by PPQ treatment measured for 1 min at 10 to 15 mins post PPQ treatment; type: functional

T1 sequence (P41145 whole entry): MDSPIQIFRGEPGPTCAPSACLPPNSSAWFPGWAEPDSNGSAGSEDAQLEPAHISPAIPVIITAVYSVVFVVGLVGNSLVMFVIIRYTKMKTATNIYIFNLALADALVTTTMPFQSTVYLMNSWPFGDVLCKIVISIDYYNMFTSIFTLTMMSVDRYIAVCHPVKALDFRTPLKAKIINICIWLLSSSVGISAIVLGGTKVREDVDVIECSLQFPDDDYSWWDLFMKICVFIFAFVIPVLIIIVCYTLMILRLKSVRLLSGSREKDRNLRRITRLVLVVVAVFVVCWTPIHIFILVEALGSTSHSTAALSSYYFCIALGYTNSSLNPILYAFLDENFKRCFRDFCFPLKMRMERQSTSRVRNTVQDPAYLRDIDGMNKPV

What does the source list for `CCCCC(=N)NCCCCCNC(=O)[C@H](CC(C)C)NC(=O)CNC(=O)[C@@]1(c2ccccc2)C[C@H]1CN1CC[C@]2(C)c3cc(O)ccc3C[C@@H]1[C@@H]2C`?
Ki [1]: 6.7 nM; Ratio Ki (Homo sapiens [2]): 375; Ratio Ki (Homo sapiens [3]): 408; ED50 (Mus musculus [4]): 0.88 mg/kg

What does the source list for `C[C@H]1[C@H]2C(=O)c3ccc(O)cc3[C@@]1(C)CCN2CC1CCCO1` (some centres undefined)?
Ki [1]: 720 nM; Ki (Mu-type opioid receptor [5]): 2900 nM; Ki [6]: > 10000 nM

Which Ki (Mu-type opioid receptor [7]) does the source give for `CC1C2Cc3ccc(Nc4cccnc4)cc3C1(C)CCN2CC1CC1` (racemic) here?
The Ki was 0.64 nM.

What about the Ki [8] of the same compound?
Its Ki is 21 nM.

What about the Ki [9] of the same compound?
Its Ki is 0.5 nM.

With `CC1C2Cc3ccc(O)cc3C1(C)CCN2CC1CC1` (racemic) as the compound, how does the Ki [8] read?
Its Ki is 1.1 nM.

What about the Ki [9] of the same compound?
Its Ki is 0.18 nM.

`C[C@H]1[C@H]2Cc3ccc(O)cc3[C@@]1(C)CCN2C[C@@H]1C[C@@]1(C(=O)NCc1ccccc1)c1ccccc1` was tested. Which Ki [1] did it give?
The Ki was 35 nM.

Which Ki [8] does the source give for `C[C@H]1[C@H]2Cc3ccc(Nc4ccccc4)cc3[C@@]1(C)CCN2CC1CC1` here?
Its Ki is 5.2 nM.

For `C[C@H]1[C@H]2Cc3ccc(O)cc3[C@@]1(C)CCN2C[C@@H]1CCCO1`, which Ki [8] is on record?
The Ki was 2.5 nM.

Which results are given for `C=CCCN1CC[C@]2(C)c3cc(O)ccc3C[C@@H]1[C@@H]2C`?
Ki [10]: 1.3 nM; Ki (Mu-type opioid receptor [11]): 2.1 nM; Ki [12]: 21 nM; ED50 (Mus musculus [13]): 0.05 mg/kg; ED50 (Mus musculus [14]): 0.3 mg/kg; ED50 (Mus musculus [15]): 0.8 mg/kg

Which Ki (Mu-type opioid receptor [16]) does the source give for `CCC12CCN(CC3CC3)C(C(=O)c3ccc(NC=O)cc31)C2C` (racemic) here?
The Ki was 6.1 nM.

`CCCCC(=N)NCCCCCCNC(=O)[C@H](CC(C)C)NC(=O)CNC(=O)[C@@]1(c2ccccc2)C[C@H]1CN1CC[C@]2(C)c3cc(O)ccc3C[C@@H]1[C@@H]2C` was tested. Which Ki [1] did it give?
The Ki was 5.3 nM.

And the Ratio Ki (Homo sapiens [2])?
Its Ratio Ki is 408.

What about the Ratio Ki (Homo sapiens [3]) of the same compound?
Its Ratio Ki is 424.

And the ED50 (Mus musculus [4])?
Its ED50 is 1.1 mg/kg.

How did the Ki (Mu-type opioid receptor [17]) turn out when `C=CC[N+]1(C)CC[C@]2(C)c3cc(O)ccc3C[C@@H]1[C@@H]2C` (some centres undefined) was run?
The Ki was 56.4 nM.

And the Ki [18]?
Its Ki is 10.3 nM.

What about the Emax [19] of the same compound?
The Emax was 27.3%.

And the EC50 [20]?
Its EC50 is 268 nM.

`CCC12CCN(CC3CC3)C(C(=O)c3ccc(O)cc31)C2C` (racemic) was tested. Which Ki [8] did it give?
Its Ki is 3.4 nM.

What about the Ki (Mu-type opioid receptor [5]) of the same compound?
The Ki was 0.78 nM.

And the Ki [6]?
Its Ki is 3.4 nM.

With `C[C@H]1[C@H]2Cc3cc4sc(N)nc4cc3[C@@]1(C)CCN2CC1CCC1` as the compound, how does the Ki (Mu-type opioid receptor [21]) read?
Its Ki is 8.3 nM.

And the Ki [22]?
Its Ki is 93 nM.

What about the Ki [23] of the same compound?
Its Ki is 0.49 nM.

`C[C@H]1[C@H]2Cc3ccc(N)cc3[C@@]1(C)CCN2CC1CC1` was tested. Which Ki [8] did it give?
Its Ki is 12 nM.

With `C=CCN1CC[C@]2(C)c3cc(O)ccc3C[C@@H]1[C@@H]2C` as the compound, how does the Ki [10] read?
The Ki was 0.3 nM.

And the Ki (Mu-type opioid receptor [11])?
Its Ki is 0.9 nM.

What about the Ki [12] of the same compound?
Its Ki is 5.5 nM.

And the ED50 (Mus musculus [15])?
Its ED50 is 0.1 mg/kg.

Which Ki [10] does the source give for `C[C@H]1[C@H]2Cc3ccc(O)cc3[C@@]1(C)CCN2CCCC#N` here?
Its Ki is 0.4 nM.

What about the Ki (Mu-type opioid receptor [11]) of the same compound?
The Ki was 23 nM.

And the Ki [12]?
The Ki was 5.8 nM.

What about the ED50 (Mus musculus [13]) of the same compound?
The ED50 was 0.4 mg/kg.

What about the ED50 (Mus musculus [14]) of the same compound?
The ED50 was 1 mg/kg.

What about the ED50 (Mus musculus [15]) of the same compound?
Its ED50 is 0.01 mg/kg.

Which Ki (Mu-type opioid receptor [21]) does the source give for `C[C@H]1[C@H]2Cc3cc4sc(N)nc4cc3[C@@]1(C)CCN2CC1CC1` here?
The Ki was 48 nM.

What about the Ki [22] of the same compound?
Its Ki is 940 nM.

What about the Ki [23] of the same compound?
The Ki was 6.7 nM.

Which Ki (Mu-type opioid receptor [16]) does the source give for `C[C@H]1[C@H]2Cc3ccc(NC=O)cc3[C@]1(C)CCN2CC1CC1` here?
The Ki was 1.1 nM.

What about the Ki [24] of the same compound?
Its Ki is 9.8 nM.

And the Ki [25]?
Its Ki is 0.49 nM.

How did the Ki (Mu-type opioid receptor [16]) turn out when `CC1C2Cc3ccc(NC=O)cc3C1(C)CCN2CC1CC1` (racemic) was run?
The Ki was 1.9 nM.

With `C[C@H]1[C@H]2Cc3ccc(O)cc3[C@@]1(C)CCN2CCC#N` as the compound, how does the Ki [10] read?
The Ki was 0.4 nM.

What about the Ki (Mu-type opioid receptor [11]) of the same compound?
The Ki was 9.8 nM.

And the Ki [12]?
Its Ki is 4.2 nM.

What about the ED50 (Mus musculus [13]) of the same compound?
Its ED50 is 0.3 mg/kg.

What about the ED50 (Mus musculus [14]) of the same compound?
Its ED50 is 0.1 mg/kg.

And the ED50 (Mus musculus [15])?
Its ED50 is 0.05 mg/kg.

What does the source list for `C[C@H]1[C@H]2Cc3ccc(O)cc3[C@@]1(C)CC[N+]2(C)CC1CC1` (some centres undefined)?
Ki (Mu-type opioid receptor [17]): 23 nM; Ki [18]: 4.33 nM; Emax [19]: 50%; EC50 [20]: 77.3 nM

For `CC1C2Cc3ccc(C(N)=O)cc3C1(C)CCN2CC1CC1` (racemic), which Ki [8] is on record?
Its Ki is 8.3 nM.

For `C[C@H]1[C@H]2Cc3ccc(O)cc3[C@@]1(C)CCN2CC1CC1`, which Ki [8] is on record?
The Ki was 0.58 nM.

What about the Ki [9] of the same compound?
The Ki was 0.052 nM.

`C[C@H]1[C@H]2Cc3ccc(O)cc3[C@@]1(C)CCN2CCCCCCO` was tested. Which ED50 (Mus musculus [26]) did it give?
Its ED50 is 1.9 mg/kg.

Which results are given for `COc1ccc(Nc2ccc3c(c2)C2(C)CCN(CC4CC4)C(C3)C2C)cc1` (racemic)?
Ki (Mu-type opioid receptor [7]): 0.47 nM; Ki [8]: 8.3 nM; Ki [9]: 0.29 nM

Which results are given for `C#CCCN1CC[C@]2(C)c3cc(O)ccc3C[C@@H]1[C@@H]2C`?
Ki [10]: 1.4 nM; Ki (Mu-type opioid receptor [11]): 4.6 nM; Ki [12]: 10 nM; ED50 (Mus musculus [13]): 0.05 mg/kg; ED50 (Mus musculus [14]): 0.04 mg/kg; ED50 (Mus musculus [15]): 0.1 mg/kg

How did the Ki [1] turn out when `C[C@H]1[C@H]2Cc3ccc(O)cc3[C@@]1(C)CCN2C[C@@H]1C[C@@]1(CN1CCCCC1)c1ccccc1` was run?
The Ki was 179 nM.

What about the Ki (Mu-type opioid receptor [5]) of the same compound?
Its Ki is 45 nM.
